Source: ChEMBL document CHEMBL1909046, “DrugMatrix in vitro pharmacology data”

Columns and labels:
[1] = target: Mitogen-activated protein kinase 14 (Homo sapiens, UniProt Q16539); set-up: species or system Escherichia coli;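 also: inhibition of p38alpha enzyme activity in a biochemical kinase assay, with myelin basic protein serving as substrate; in other assays of this panel Not Active means under 50% inhibition at 10 µM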
[2] = target: Sodium-dependent dopamine transporter (Homo sapiens, UniProt Q01959); assay: DRUGMATRIX: Dopamine Transporter radioligand binding (ligand: [125I] RTI-55); format: cell membranes, CHO-K1, Membrane; settings: Not Active = under 50% inhibition at 10 µM
Sequence of Sodium-dependent dopamine transporter (Q01959 whole entry): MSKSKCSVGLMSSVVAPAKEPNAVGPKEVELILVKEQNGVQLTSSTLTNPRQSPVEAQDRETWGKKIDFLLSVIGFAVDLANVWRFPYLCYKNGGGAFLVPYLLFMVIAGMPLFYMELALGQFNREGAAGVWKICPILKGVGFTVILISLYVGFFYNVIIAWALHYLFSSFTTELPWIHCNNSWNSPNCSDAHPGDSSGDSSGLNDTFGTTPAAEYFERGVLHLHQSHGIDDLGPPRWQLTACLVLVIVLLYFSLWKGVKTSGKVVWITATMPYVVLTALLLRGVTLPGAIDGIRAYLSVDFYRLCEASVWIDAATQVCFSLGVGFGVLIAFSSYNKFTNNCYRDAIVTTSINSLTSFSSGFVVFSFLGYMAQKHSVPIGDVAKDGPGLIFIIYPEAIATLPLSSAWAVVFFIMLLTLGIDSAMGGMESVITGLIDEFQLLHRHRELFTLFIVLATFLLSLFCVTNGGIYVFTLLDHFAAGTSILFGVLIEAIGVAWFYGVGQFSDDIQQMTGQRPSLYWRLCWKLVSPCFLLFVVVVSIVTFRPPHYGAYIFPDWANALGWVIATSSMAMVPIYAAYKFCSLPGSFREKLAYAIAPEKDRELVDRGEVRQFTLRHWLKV

[3] = DRUGMATRIX: Tumor Necrosis Factor (TNF), Non-Selective radioligand binding (ligand: [125I] TNF-alpha); format: cell membranes, Membrane; settings: u-937; Not Active = under 50% inhibition at 10 µM
[4] = target: T1, Muscarinic acetylcholine receptor M4 (Homo sapiens, UniProt P08173); format: cell membranes, CHO-K1, Membrane; settings: cho-k1; also: in other assays of this panel Not Active means under 50% inhibition at 10 µM
T1 sequence (P08173 whole entry): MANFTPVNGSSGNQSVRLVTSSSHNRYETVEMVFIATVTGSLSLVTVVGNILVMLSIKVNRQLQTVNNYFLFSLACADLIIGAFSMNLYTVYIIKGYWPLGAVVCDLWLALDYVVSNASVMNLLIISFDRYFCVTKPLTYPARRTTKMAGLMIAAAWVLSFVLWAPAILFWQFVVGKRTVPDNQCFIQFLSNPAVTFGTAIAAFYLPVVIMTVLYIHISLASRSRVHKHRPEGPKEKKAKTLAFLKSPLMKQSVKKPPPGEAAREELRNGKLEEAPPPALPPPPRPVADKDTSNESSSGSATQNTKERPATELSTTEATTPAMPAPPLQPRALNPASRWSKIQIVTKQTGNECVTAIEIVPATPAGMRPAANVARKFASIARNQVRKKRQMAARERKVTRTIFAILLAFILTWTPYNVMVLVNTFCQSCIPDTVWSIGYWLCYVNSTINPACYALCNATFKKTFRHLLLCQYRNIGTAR

[5] = target: T2, 5-hydroxytryptamine receptor 2C (Homo sapiens, UniProt P28335); assay: DRUGMATRIX: Serotonin (5-Hydroxytryptamine) 5-HT2C radioligand binding (ligand: [3H] Mesulergine); format: cell membranes, CHO-K1, Membrane; settings: cho-k1; Not Active = under 50% inhibition at 10 µM
T2 sequence (P28335 whole entry): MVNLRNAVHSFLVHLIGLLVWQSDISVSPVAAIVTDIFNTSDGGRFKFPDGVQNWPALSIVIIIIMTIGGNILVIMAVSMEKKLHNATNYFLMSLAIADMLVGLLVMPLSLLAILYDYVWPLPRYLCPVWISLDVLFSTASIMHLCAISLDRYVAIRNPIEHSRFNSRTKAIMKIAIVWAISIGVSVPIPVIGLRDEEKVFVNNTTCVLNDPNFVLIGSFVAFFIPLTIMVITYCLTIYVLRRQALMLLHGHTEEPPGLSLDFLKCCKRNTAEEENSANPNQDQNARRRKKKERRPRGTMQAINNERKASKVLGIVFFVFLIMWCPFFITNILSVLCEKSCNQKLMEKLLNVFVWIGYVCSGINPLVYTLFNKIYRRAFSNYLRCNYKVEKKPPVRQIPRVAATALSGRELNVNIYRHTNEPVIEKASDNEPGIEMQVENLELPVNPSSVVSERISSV

[6] = DRUGMATRIX: Atrial Natriuretic Factor (ANF) radioligand binding (ligand: [125I] ANF (rat)); format: cell membranes, Cavia porcellus, Dunkin-Hartley, Adrenal gland, Membrane; settings: Not Active = under 50% inhibition at 10 µM

Sequence of Mitogen-activated protein kinase 14 (Q16539 whole entry): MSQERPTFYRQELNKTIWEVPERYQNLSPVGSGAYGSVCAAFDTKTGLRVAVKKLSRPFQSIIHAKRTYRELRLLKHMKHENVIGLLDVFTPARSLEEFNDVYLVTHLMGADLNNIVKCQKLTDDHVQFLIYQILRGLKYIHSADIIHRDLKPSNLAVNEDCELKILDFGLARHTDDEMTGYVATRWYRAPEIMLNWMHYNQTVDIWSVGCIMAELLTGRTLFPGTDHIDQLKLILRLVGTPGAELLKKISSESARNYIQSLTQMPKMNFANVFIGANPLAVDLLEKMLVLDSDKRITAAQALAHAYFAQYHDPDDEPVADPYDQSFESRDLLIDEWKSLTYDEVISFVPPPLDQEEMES

Compound | IC50 [1] | IC50 ([2]; cho-k1) | IC50 [3] | Ki [3] | IC50 [4] | IC50 [5] | IC50 [6] | Ki [6] | Ki [1] | Ki ([2]; cho-k1) | Ki [4] | Ki [5] | IC50 ([2]; read-out: IC50) [µM] | Ki ([2]; read-out: Ki) [µM] | IC50 ([1]; read-out: IC50) [µM]
CCN(CCO)CCCC(C)Nc1ccnc2cc(Cl)ccc12 (centres undefined) [HYDROXYCHLOROQUINE] | Not Active | Not Active | Not Active | Not Active | Not Active | Not Active | Not Active | Not Active | – | – | – | – | – | – | –
COPPER(II) OXIDE | Not Active | Not Active | Not Active | Not Active | Not Active | Not Active | Not Active | Not Active | Not Active | Not Active | Not Active | Not Active | – | – | –
CN(CCOc1ccc(C[C@H](Nc2ccccc2C(=O)c2ccccc2)C(=O)O)cc1)c1ccccn1 | Not Active | – | Not Active | Not Active | Not Active | Not Active | Not Active | Not Active | – | – | – | – | 13.6 | 10.8 | –
COc1cc([C@@H]2c3cc4c(cc3[C@H](O)[C@H]3COC(=O)[C@H]23)OCO4)cc(OC)c1OC [PODOFILOX] | Not Active | Not Active | Not Active | Not Active | Not Active | Not Active | Not Active | Not Active | – | – | – | – | – | – | –
ClC1=C(Cl)[C@]2(Cl)[C@@H]3[C@@H]4C[C@@H]([C@H]5O[C@@H]45)[C@@H]3[C@@]1(Cl)C2(Cl)Cl [DIELDRIN] | – | Not Active | Not Active | Not Active | Not Active | Not Active | Not Active | Not Active | – | – | – | – | – | – | 43.2
CCN1CCN(c2cc3c(cc2F)c(=O)c(C(=O)O)cn3C2CC2)CC1 [ENROFLOXACIN] | Not Active | Not Active | Not Active | Not Active | Not Active | Not Active | Not Active | Not Active | – | – | – | – | – | – | –
C[C@H]1C[C@H]2[C@@H]3CCC4=CC(=O)C=C[C@]4(C)[C@@]3(F)[C@@H](O)C[C@]2(C)[C@@]1(O)C(=O)CO [BETAMETHASONE] | Not Active | Not Active | Not Active | Not Active | Not Active | Not Active | Not Active | Not Active | – | – | – | – | – | – | –
OC[C@H]1O[C@@H]2O[C@H]3[C@H](O)[C@@H](O)[C@@H](O[C@H]4[C@H](O)[C@@H](O)[C@@H](O[C@H]5[C@H](O)[C@@H](O)[C@@H](O[C@H]6[C@H](O)[C@@H](O)[C@@H](O[C@H]7[C@H](O)[C@@H](O)[C@@H](O[C@H]8[C@H](O)[C@@H](O)[C@@H](O[C@H]1[C@H](O)[C@H]2O)O[C@@H]8CO)O[C@@H]7CO)O[C@@H]6CO)O[C@@H]5CO)O[C@@H]4CO)O[C@@H]3CO [BETADEX] | Not Active | Not Active | Not Active | Not Active | Not Active | Not Active | Not Active | Not Active | – | – | – | – | – | – | –
c1ccc(Cn2ccnc2)cc1 | Not Active | Not Active | Not Active | Not Active | Not Active | Not Active | Not Active | Not Active | – | – | – | – | – | – | –
C=CCN1CC[C@]23c4c5ccc(O)c4O[C@H]2/C(=N/N=C2\CC[C@@]4(O)[C@H]6Cc7ccc(O)c8c7[C@@]4(CCN6CC=C)[C@H]2O8)CC[C@@]3(O)[C@H]1C5 [NALOXONAZINE] | Not Active | Not Active | Not Active | Not Active | Not Active | Not Active | Not Active | Not Active | – | – | – | – | – | – | –
CCCCCCNC(=O)n1cc(F)c(=O)[nH]c1=O [CARMOFUR] | Not Active | Not Active | Not Active | Not Active | Not Active | Not Active | Not Active | Not Active | – | – | – | – | – | – | –
OC[C@H]1O[C@@H]2O[C@H]3[C@H](O)[C@@H](O)[C@@H](O[C@H]4[C@H](O)[C@@H](O)[C@@H](O[C@H]5[C@H](O)[C@@H](O)[C@@H](O[C@H]6[C@H](O)[C@@H](O)[C@@H](O[C@H]7[C@H](O)[C@@H](O)[C@@H](O[C@H]1[C@H](O)[C@H]2O)O[C@@H]7CO)O[C@@H]6CO)O[C@@H]5CO)O[C@@H]4CO)O[C@@H]3CO [ALFADEX] | Not Active | Not Active | Not Active | Not Active | Not Active | Not Active | Not Active | Not Active | – | – | – | – | – | – | –
CC(C)NCC(O)COc1ccc(CC(N)=O)cc1 (centres undefined) [ATENOLOL] | Not Active | Not Active | Not Active | Not Active | Not Active | Not Active | Not Active | Not Active | – | – | – | – | – | – | –
